# Measurements published in publication PMC5021990 (Biochemical and biophysical research communications, 2016).
# What was measured:
# FnLpxA = FnLpxA (Francisella tularensis, UniProt A0Q7Y0); conditions: 20 μM R,S-3-hydroxypalmitoyl-ACP, 100 μM [α-32P]UDP-GlcNAc, 40 mM HEPES pH 7.4, 100 mM NaCl, 30 °C; labelled compound
# [1] = molecular target: Francisella novicida LpxA (UDP-N-acetylglucosamine acyltransferase), C-terminally His6-tagged (Francisella novicida); test: SEC
Compound,"TLC radioassay of acyl transfer, PhosphorImager (FnLpxA)",stoichiometry N [1]
CC(=O)N[C@H]1[C@@H](OP(=O)(O)OP(=O)(O)OC[C@H]2O[C@@H](n3ccc(=O)[nH]c3=O)[C@H](O)[C@@H]2O)O[C@H](CO)[C@@H](O)[C@@H]1O [UDP-GlcNAc],purified FnLpxA transfers a 3-hydroxypalmitoyl group from 3-hydroxypalmitoyl-ACP to the 3-OH of UDP-GlcNAc,
"Francisella novicida LpxA (UDP-N-acetylglucosamine acyltransferase), C-terminally His6-tagged (enzyme)",,3
